Source: patent US12577226B2, “Compounds for treating Huntington's disease” (PTC THERAPEUTICS, INC., priority 2019, dated 2026)

Test system: Endogenous Huntingtin Protein (capture with MW1 (expanded polyglutamine) or MAB2166 antibody)
Experiment: Endogenous Huntingtin Protein Assay (ELISA-based Meso Scale Discovery electrochemiluminescence assay)
Format: cell-based
Conditions: MSD electrochemiluminescence platform
Outline: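 MSD electrochemiluminescence sandwich immunoassay: plates coated with 1 μg/mL MW1 or MAB2166 capture antibody, samples incubated overnight at 4 °C. Detection with rabbit monoclonal #5656S then SULFO-TAG anti-rabbit (each 0.25 μg/mL, 1 h RT).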

IC50 [nM]	SMILES
≤ 100	CC[C@H]1CN(c2ccc(-c3ncc(-c4cn[nH]c4)cc3O)nn2)CCN1 [Compound 132, 2-{6-[(3S)-3-ethylpiperazin-1-yl]pyridazin-3-yl}-5-(1H-pyrazol-4-yl)pyridin-3-ol]
≤ 100	CC(C)(C)NC1CCN(c2ncc(-c3ncc(-c4cn[nH]c4)cc3O)nn2)C1 (centres unmarked) [Compound 136, 2-{3-[3-(tert-butylamino)pyrrolidin-1-yl]-1,2,4-triazin-6-yl}-5-(1H-pyrazol-4-yl)pyridin-3-ol]
≤ 100	[2H]C([2H])([2H])n1cc(-c2cnc(-c3cnc(N4CCC(NC(C)(C)C)C4)nn3)c(O)c2)cn1 (centres unmarked) [Compound 137, 2-{3-[3-(tert-butylamino)pyrrolidin-1-yl]-1,2,4-triazin-6-yl}-5-[1-(^2H3)methyl-1H-pyrazol-4-yl]pyridin-3-ol]
≤ 100	CC(C)(C)NC1CCN(c2ncc(-c3ncc(-n4nccn4)cc3O)nn2)C1 (centres unmarked) [Compound 138, 2-{3-[3-(tert-butylamino)pyrrolidin-1-yl]-1,2,4-triazin-6-yl}-5-(2H-1,2,3-triazol-2-yl)pyridin-3-ol]
500 to 1000	CC1(C)CC(Oc2ncc(-c3ncc(-c4cn[nH]c4)cc3O)nn2)CC(C)(C)N1 [Compound 141, 5-(1H-pyrazol-4-yl)-2-{3-[(2,2,6,6-tetramethylpiperidin-4-yl)oxy]-1,2,4-triazin-6-yl}pyridin-3-ol]
≤ 100	CC(C)(C)N[C@H]1CCN(c2ncc(-c3ncc(-c4c[nH]nc4F)cc3O)nn2)C1 [Compound 145, 2-{3-[(3S)-3-(tert-butylamino)pyrrolidin-1-yl]-1,2,4-triazin-6-yl}-5-(3-fluoro-1H-pyrazol-4-yl)pyridin-3-ol]
≤ 100	COc1cc(-c2cnc(-c3cnc(N4CC[C@@H](NC(C)(C)C)C4)nn3)c(O)c2)cc2cn(C)nc12 [Compound 146, 2-{3-[(3R)-3-(tert-butylamino)pyrrolidin-1-yl]-1,2,4-triazin-6-yl}-5-(7-methoxy-2-methyl-2H-indazol-5-yl)pyridin-3-ol]
100 to 500	Cc1cn2cc(-c3cnc(-c4cnc(N5CC[C@@H](NC(C)(C)C)C5)nn4)c(O)c3)cc(C#N)c2n1 [Compound 147, 6-(6-{3-[(3R)-3-(tert-butylamino)pyrrolidin-1-yl]-1,2,4-triazin-6-yl}-5-hydroxypyridin-3-yl)-2-methylimidazo[1,2-a]pyridine-8-carbonitrile]
100 to 500	CCc1cc(-c2cnc(-c3cnc(N4CC[C@@H](NC(C)(C)C)C4)nn3)c(O)c2)cn2cc(C)nc12 [Compound 148, 2-{3-[(3R)-3-(tert-butylamino)pyrrolidin-1-yl]-1,2,4-triazin-6-yl}-5-(8-ethyl-2-methylimidazo[1,2-a]pyridin-6-yl)pyridin-3-ol]
≤ 100	COc1cc(-c2cnc(-c3cnc(N4CCN(C)CC4)nn3)c(O)c2)cc2cn(C)nc12 [Compound 150, 5-(7-methoxy-2-methyl-2H-indazol-5-yl)-2-[3-(4-methylpiperazin-1-yl)-1,2,4-triazin-6-yl]pyridin-3-ol]
≤ 100	Cc1cn2cc(-c3cnc(-c4cnc(N5CCN(C)CC5)nn4)c(O)c3)cc(F)c2n1 [Compound 151, 5-(8-fluoro-2-methylimidazo[1,2-a]pyridin-6-yl)-2-[3-(4-methylpiperazin-1-yl)-1,2,4-triazin-6-yl]pyridin-3-ol]
500 to 1000	CN1CCN(c2ncc(-c3ncc(-c4cn[nH]c4)cc3O)nn2)CC1 [Compound 152, 2-[3-(4-methylpiperazin-1-yl)-1,2,4-triazin-6-yl]-5-(1H-pyrazol-4-yl)pyridin-3-ol]
≤ 100	Cc1cn2cc(-c3cnc(-c4cnc(N5CCN(C)CC5)nn4)c(O)c3)cc(C)c2n1 [Compound 153, 5-(2,8-dimethylimidazo[1,2-a]pyridin-6-yl)-2-[3-(4-methylpiperazin-1-yl)-1,2,4-triazin-6-yl]pyridin-3-ol]
≤ 100	Cc1cnc(Nc2cnc(-c3cnc(N4CCN[C@@H](C(C)C)C4)nn3)c(O)c2)cn1 [Compound 154, 5-[(5-methylpyrazin-2-yl)amino]-2-[3-[(3S)-3-(propan-2-yl)piperazin-1-yl]-1,2,4-triazin-6-yl}pyridin-3-ol]
≤ 100	CC(C)[C@H]1CN(c2ncc(-c3ncc(-c4cc(F)c5nn(C)cc5c4)cc3O)nn2)CCN1 [Compound 155, 5-(7-fluoro-2-methyl-2H-indazol-5-yl)-2-{3-[(3S)-3-(propan-2-yl)piperazin-1-yl]-1,2,4-triazin-6-yl}pyridin-3-ol]
100 to 500	CC(C)[C@H]1CN(c2ncc(-c3ncc(-n4nccn4)cc3O)nn2)CCN1 [Compound 156, 2-{3-[(3S)-3-(propan-2-yl)piperazin-1-yl]-1,2,4-triazin-6-yl}-5-(2H-1,2,3-triazol-2-yl)pyridin-3-ol]
≤ 100	Cn1nc2cc(-c3cnc(-c4cnc(N5CCN[C@@H](C6CC6)C5)nn4)c(O)c3)cnc2n1 [Compound 157, 2-{3-[(3S)-3-cyclopropylpiperazin-1-yl]-1,2,4-triazin-6-yl}-5-(2-methyl-2H-[1,2,3]triazolo[4,5-b]pyridin-6-yl)pyridin-3-ol]
≤ 100	Cn1cc2cc(-c3cnc(-c4cnc(N5CCN[C@@H](C6CC6)C5)nn4)c(O)c3)cc(F)c2n1 [Compound 158, 2-{3-[(3S)-3-cyclopropylpiperazin-1-yl]-1,2,4-triazin-6-yl}-5-(7-fluoro-2-methyl-2H-indazol-5-yl)pyridin-3-ol]
100 to 500	Oc1cc(-n2nccn2)cnc1-c1cnc(N2CCN[C@@H](C3CC3)C2)nn1 [Compound 159, 2-{3-[(3S)-3-cyclopropylpiperazin-1-yl]-1,2,4-triazin-6-yl}-5-(2H-1,2,3-triazol-2-yl)pyridin-3-ol]
≤ 100	Cc1cnc(Nc2cnc(-c3cnc(N4CCN[C@@H](C5CC5)C4)nn3)c(O)c2)cn1 [Compound 160, 2-{3-[(3S)-3-cyclopropylpiperazin-1-yl]-1,2,4-triazin-6-yl}-5-[(5-methylpyrazin-2-yl)amino]pyridin-3-ol]
≤ 100	CC1(C)CC(Nc2cnc(-c3ncc(-n4nccn4)cc3O)nn2)CC(C)(C)N1 [Compound 163, 2-{6-[(2,2,6,6-tetramethylpiperidin-4-yl)amino]-1,2,4-triazin-3-yl}-5-(2H-1,2,3-triazol-2-yl)pyridin-3-ol]
100 to 500	C[C@@H]1CN(c2cnc(-c3ncc(-c4cc(F)c5nn(C)cc5c4)cc3O)nn2)C[C@H](C)N1 [Compound 164, 2-{6-[(3R,5S)-3,5-dimethylpiperazin-1-yl]-1,2,4-triazin-3-yl}-5-(7-fluoro-2-methyl-2H-indazol-5-yl)pyridin-3-ol and 2-{6-[(3S,5R)-3,5-dimethylpiperazin-1-yl]-1,2,4-triazin-3-yl}-5-(7-fluoro-2-methyl-2H-indazol-5-yl)pyridin-3-ol]

SMILES	IC50 [nM]
C[C@@H]1CN(c2ccc(-c3ncc(-c4ccc5n[nH]cc5c4)cc3O)nn2)C[C@H](C)N1 [Compound 131, 2-{6-[(3R,5S)-3,5-dimethylpiperazin-1-yl]pyridazin-3-yl}-5-(2H-indazol-5-yl)pyridin-3-ol and 2-{6-[(3S,5R)-3,5-dimethylpiperazin-1-yl]pyridazin-3-yl}-5-(2H-indazol-5-yl)pyridin-3-ol]	500 to 1000
CN(c1ncc(-c2ncc(-c3cn[nH]c3)cc2O)nn1)C1CC(C)(C)NC(C)(C)C1 [Compound 135, 2-{3-[methyl(2,2,6,6-tetramethylpiperidin-4-yl)amino]-1,2,4-triazin-6-yl}-5-(1H-pyrazol-4-yl)pyridin-3-ol]	≤ 100
[2H]C([2H])([2H])n1cc(-c2cnc(-c3cnc(N(C)C4CC(C)(C)NC(C)(C)C4)nn3)c(O)c2)cn1 [Compound 142, 5-[1-(^2H3)methyl-1H-pyrazol-4-yl]-2-{3-[methyl(2,2,6,6-tetramethylpiperidin-4-yl)amino]-1,2,4-triazin-6-yl}pyridin-3-ol]	≤ 100
CN(c1ncc(-c2ncc(-c3cn[nH]c3F)cc2O)nn1)C1CC(C)(C)NC(C)(C)C1 [Compound 143, 5-(5-fluoro-1H-pyrazol-4-yl)-2-{3-[methyl(2,2,6,6-tetramethylpiperidin-4-yl)amino]-1,2,4-triazin-6-yl}pyridin-3-ol]	100 to 500
CN(c1ncc(-c2ncc(-n3nccn3)cc2O)nn1)C1CC(C)(C)NC(C)(C)C1 [Compound 144, 2-{3-[methyl(2,2,6,6-tetramethylpiperidin-4-yl)amino]-1,2,4-triazin-6-yl}-5-(2H-1,2,3-triazol-2-yl)pyridin-3-ol]	≤ 100
CN(c1cnc(-c2ncc(-n3nccn3)cc2O)nn1)C1CC(C)(C)NC(C)(C)C1 [Compound 161, 2-{6-[methyl(2,2,6,6-tetramethylpiperidin-4-yl)amino]-1,2,4-triazin-3-yl}-5-(2H-1,2,3-triazol-2-yl)pyridin-3-ol]	≤ 100
CN(c1cnc(-c2ncc(-c3cn[nH]c3)cc2O)nn1)C1CC(C)(C)NC(C)(C)C1 [Compound 162, 2-{6-[methyl(2,2,6,6-tetramethylpiperidin-4-yl)amino]-1,2,4-triazin-3-yl}-5-(1H-pyrazol-4-yl)pyridin-3-ol]	≤ 100
